Tests used:
Test in all cases: Test B preemergence/postemergence greenhouse plant response rating 0 to 10
[1] = system: barley; format: in vivo, Hordeum vulgare; conditions: for Plant response rating, Barley: 0 to 10 scale
Text: (§1) Seeds of barley (Hordeum vulgare), barnyardgrass (Echinochloa crus-galli), bedstraw (Galium aparine), blackgrass (Alopecurus myosuroides), […] (Bromus secalinus), chickweed (Stellaria media), cocklebur (Xanthium pensylvanicum), corn (Zea mays), cotton (Gossypium hirsutum), crabgrass (Digitaria spp.), giant foxtail (Setaria faberii), lambsquarters (Chenopodium album), morningglory (Ipomoea hederacea), rape (Brassica napus), rice (Oryza sativa), sorghum (Sorghum bicolor), soybean (Glycine max), sugar beet (Beta vulgaris), velvetleaf (Abutilon theophrasti), wheat (Triticum aestivum), wild buckwheat (Polygonum convolvulus), and wild oat (Avena fatua) and purple nutsedge. (Cyperus rotundus) tubers were planted and treated preemergence with test chemicals dissolved in a non-phytotoxic solvent. At the same time, these crop and weed species were also treated with postemergence applications of test chemicals. Plants ranged in height from two to eighteen cm (one to four leaf stage) for postemergence treatments. Treated plants and controls were maintained in a greenhouse for twelve to sixteen days, after which all species were compared to controls and visually evaluated. […] A dash (-) response means no test result.

[2] = system: barnyardgrass; format: in vivo, Echinochloa crus-galli; conditions: for Plant response rating, Barnyardgrass: 0 to 10 scale
Text: as §1

[3] = system: bedstraw; format: in vivo, Galium aparine; conditions: for Plant response rating, Bedstraw: 0 to 10 scale
Text: as §1

[4] = system: blackgrass; format: in vivo, Alopecurus myosuroides; conditions: for Plant response rating, Blackgrass: 0 to 10 scale
Text: as §1

[5] = system: cheatgrass; format: in vivo, Bromus secalinus; conditions: for Plant response rating, Cheatgrass: 0 to 10 scale
Text: as §1

[6] = system: chickweed; format: in vivo, Stellaria media; conditions: for Plant response rating, Chickweed: 0 to 10 scale
Text: as §1

[7] = system: cocklebur; format: in vivo, Xanthium pensylvanicum; conditions: for Plant response rating, Cocklebur: 0 to 10 scale
Text: as §1

[8] = system: corn; format: in vivo, Zea mays; conditions: for Plant response rating, Corn: 0 to 10 scale
Text: as §1

[9] = system: cotton; format: in vivo, Gossypium hirsutum; conditions: for Plant response rating, Cotton: 0 to 10 scale
Text: as §1

[10] = system: crabgrass; format: in vivo, Digitaria spp.; conditions: for Plant response rating, Crabgrass: 0 to 10 scale
Text: as §1

[11] = system: giant foxtail; format: in vivo, Setaria faberii; conditions: for Plant response rating, Giant foxtail: 0 to 10 scale
Text: as §1

[12] = system: lambsquarters; format: in vivo, Chenopodium album; conditions: for Plant response rating, Lambsquarter: 0 to 10 scale
Text: as §1

[13] = system: morningglory; format: in vivo, Ipomoea hederacea; conditions: for Plant response rating, Morningglory: 0 to 10 scale
Text: as §1

[14] = system: rape; format: in vivo, Brassica napus; conditions: for Plant response rating, Rape: 0 to 10 scale
Text: as §1

[15] = system: rice; format: in vivo, Oryza sativa; conditions: for Plant response rating, Rice: 0 to 10 scale
Text: as §1

[16] = system: sorghum; format: in vivo, Sorghum bicolor; conditions: for Plant response rating, Sorghum: 0 to 10 scale
Text: as §1

[17] = system: soybean; format: in vivo, Glycine max; conditions: for Plant response rating, Soybean: 0 to 10 scale
Text: as §1

[18] = system: sugar beet; format: in vivo, Beta vulgaris; conditions: for Plant response rating, Sugar beet: 0 to 10 scale
Text: as §1

[19] = system: velvetleaf; format: in vivo, Abutilon theophrasti; conditions: for Plant response rating, Velvetleaf: 0 to 10 scale
Text: as §1

[20] = system: wheat; format: in vivo, Triticum aestivum; conditions: for Plant response rating, Wheat: 0 to 10 scale
Text: as §1

[21] = system: wild buckwheat; format: in vivo, Polygonum convolvulus; conditions: for Plant response rating, Wild buckwheat: 0 to 10 scale
Text: as §1

[22] = system: wild oat; format: in vivo, Avena fatua; conditions: for Plant response rating, Wild oat: 0 to 10 scale
Text: as §1

[23] = system: purple nutsedge; format: in vivo, Cyperus rotundus; conditions: for Plant response rating, Nutsedge: 0 to 10 scale
Text: as §1

CCOC(=O)c1cc(-c2nn3c(c2Cl)CCCC3)c(F)cc1Cl [Compound 78]
Plant response rating, Barley ([1]; POSTEMERGENCE, Rate 50 g/ha): 3
Plant response rating, Barley ([1]; PREEMERGENCE, Rate 50 g/ha): 2
Plant response rating (0 to 10 scale), Barley ([1]; PREEMERGENCE, Rate 200 g/ha): 0
Plant response rating, Barley ([1]; Rate 200 g/ha, POSTEMERGENCE): 5
Plant response rating, Barnyardgrass ([2]; POSTEMERGENCE, Rate 50 g/ha): 8
Plant response rating, Barnyardgrass ([2]; PREEMERGENCE, Rate 50 g/ha): 2
Plant response rating (0 to 10 scale), Barnyardgrass ([2]; PREEMERGENCE, Rate 200 g/ha): 6
Plant response rating, Barnyardgrass ([2]; Rate 200 g/ha, POSTEMERGENCE): 9
Plant response rating, Bedstraw ([3]; POSTEMERGENCE, Rate 50 g/ha): 6
Plant response rating, Bedstraw ([3]; PREEMERGENCE, Rate 50 g/ha): 2
Plant response rating (0 to 10 scale), Bedstraw ([3]; PREEMERGENCE, Rate 200 g/ha): 9
Plant response rating, Bedstraw ([3]; Rate 200 g/ha, POSTEMERGENCE): 9
Plant response rating, Blackgrass ([4]; POSTEMERGENCE, Rate 50 g/ha): 4
Plant response rating, Blackgrass ([4]; PREEMERGENCE, Rate 50 g/ha): 4
Plant response rating (0 to 10 scale), Blackgrass ([4]; PREEMERGENCE, Rate 200 g/ha): 7
Plant response rating, Blackgrass ([4]; Rate 200 g/ha, POSTEMERGENCE): 7
Plant response rating, Cheatgrass ([5]; POSTEMERGENCE, Rate 50 g/ha): 2
Plant response rating, Cheatgrass ([5]; PREEMERGENCE, Rate 50 g/ha): 2
Plant response rating (0 to 10 scale), Cheatgrass ([5]; PREEMERGENCE, Rate 200 g/ha): 4
Plant response rating, Cheatgrass ([5]; Rate 200 g/ha, POSTEMERGENCE): 7
Plant response rating, Chickweed ([6]; POSTEMERGENCE, Rate 50 g/ha): 6
Plant response rating, Chickweed ([6]; PREEMERGENCE, Rate 50 g/ha): 6
Plant response rating (0 to 10 scale), Chickweed ([6]; PREEMERGENCE, Rate 200 g/ha): 8
Plant response rating, Chickweed ([6]; Rate 200 g/ha, POSTEMERGENCE): 10
Plant response rating, Cocklebur ([7]; POSTEMERGENCE, Rate 50 g/ha): 8
Plant response rating, Cocklebur ([7]; PREEMERGENCE, Rate 50 g/ha): 0
Plant response rating (0 to 10 scale), Cocklebur ([7]; PREEMERGENCE, Rate 200 g/ha): 0
Plant response rating, Cocklebur ([7]; Rate 200 g/ha, POSTEMERGENCE): 10
Plant response rating, Corn ([8]; POSTEMERGENCE, Rate 50 g/ha): 7
Plant response rating, Corn ([8]; PREEMERGENCE, Rate 50 g/ha): 0
Plant response rating (0 to 10 scale), Corn ([8]; PREEMERGENCE, Rate 200 g/ha): 0
Plant response rating, Corn ([8]; Rate 200 g/ha, POSTEMERGENCE): 9
Plant response rating, Cotton ([9]; POSTEMERGENCE, Rate 50 g/ha): 9
Plant response rating, Cotton ([9]; PREEMERGENCE, Rate 50 g/ha): 0
Plant response rating (0 to 10 scale), Cotton ([9]; PREEMERGENCE, Rate 200 g/ha): 2
Plant response rating, Cotton ([9]; Rate 200 g/ha, POSTEMERGENCE): 10
Plant response rating, Crabgrass ([10]; POSTEMERGENCE, Rate 50 g/ha): 4
Plant response rating, Crabgrass ([10]; PREEMERGENCE, Rate 50 g/ha): 2
Plant response rating (0 to 10 scale), Crabgrass ([10]; PREEMERGENCE, Rate 200 g/ha): 8
Plant response rating, Crabgrass ([10]; Rate 200 g/ha, POSTEMERGENCE): 5
Plant response rating, Giant foxtail ([11]; POSTEMERGENCE, Rate 50 g/ha): 4
Plant response rating, Giant foxtail ([11]; PREEMERGENCE, Rate 50 g/ha): 2
Plant response rating (0 to 10 scale), Giant foxtail ([11]; PREEMERGENCE, Rate 200 g/ha): 9
Plant response rating, Giant foxtail ([11]; Rate 200 g/ha, POSTEMERGENCE): 6
Plant response rating, Lambsquarter ([12]; POSTEMERGENCE, Rate 50 g/ha): 10
Plant response rating, Lambsquarter ([12]; PREEMERGENCE, Rate 50 g/ha): 10
Plant response rating (0 to 10 scale), Lambsquarter ([12]; PREEMERGENCE, Rate 200 g/ha): 10
Plant response rating, Lambsquarter ([12]; Rate 200 g/ha, POSTEMERGENCE): 10
Plant response rating, Morningglory ([13]; POSTEMERGENCE, Rate 50 g/ha): 10
Plant response rating, Morningglory ([13]; PREEMERGENCE, Rate 50 g/ha): 0
Plant response rating (0 to 10 scale), Morningglory ([13]; PREEMERGENCE, Rate 200 g/ha): 10
Plant response rating, Morningglory ([13]; Rate 200 g/ha, POSTEMERGENCE): 10
Plant response rating, Rape ([14]; POSTEMERGENCE, Rate 50 g/ha): 8
Plant response rating, Rape ([14]; PREEMERGENCE, Rate 50 g/ha): 4
Plant response rating (0 to 10 scale), Rape ([14]; PREEMERGENCE, Rate 200 g/ha): 9
Plant response rating, Rape ([14]; Rate 200 g/ha, POSTEMERGENCE): 10
Plant response rating, Rice ([15]; POSTEMERGENCE, Rate 50 g/ha): 3
Plant response rating, Rice ([15]; PREEMERGENCE, Rate 50 g/ha): 0
Plant response rating (0 to 10 scale), Rice ([15]; PREEMERGENCE, Rate 200 g/ha): 2
Plant response rating, Rice ([15]; Rate 200 g/ha, POSTEMERGENCE): 6
Plant response rating, Sorghum ([16]; POSTEMERGENCE, Rate 50 g/ha): 4
Plant response rating, Sorghum ([16]; PREEMERGENCE, Rate 50 g/ha): 0
Plant response rating (0 to 10 scale), Sorghum ([16]; PREEMERGENCE, Rate 200 g/ha): 3
Plant response rating, Sorghum ([16]; Rate 200 g/ha, POSTEMERGENCE): 7
Plant response rating, Soybean ([17]; POSTEMERGENCE, Rate 50 g/ha): 10
Plant response rating, Soybean ([17]; PREEMERGENCE, Rate 50 g/ha): 0
Plant response rating (0 to 10 scale), Soybean ([17]; PREEMERGENCE, Rate 200 g/ha): 1
Plant response rating, Soybean ([17]; Rate 200 g/ha, POSTEMERGENCE): 9
Plant response rating, Sugar beet ([18]; POSTEMERGENCE, Rate 50 g/ha): 10
Plant response rating, Sugar beet ([18]; PREEMERGENCE, Rate 50 g/ha): 9
Plant response rating (0 to 10 scale), Sugar beet ([18]; PREEMERGENCE, Rate 200 g/ha): 10
Plant response rating, Sugar beet ([18]; Rate 200 g/ha, POSTEMERGENCE): 10
Plant response rating, Velvetleaf ([19]; POSTEMERGENCE, Rate 50 g/ha): 10
Plant response rating, Velvetleaf ([19]; PREEMERGENCE, Rate 50 g/ha): 10
Plant response rating (0 to 10 scale), Velvetleaf ([19]; PREEMERGENCE, Rate 200 g/ha): 10
Plant response rating, Velvetleaf ([19]; Rate 200 g/ha, POSTEMERGENCE): 10
Plant response rating, Wheat ([20]; PREEMERGENCE, Rate 50 g/ha): 3
Plant response rating (0 to 10 scale), Wheat ([20]; PREEMERGENCE, Rate 200 g/ha): 4
Plant response rating, Wheat ([20]; Rate 200 g/ha, POSTEMERGENCE): 7
Plant response rating, Wild buckwheat ([21]; POSTEMERGENCE, Rate 50 g/ha): 10
Plant response rating, Wild buckwheat ([21]; PREEMERGENCE, Rate 50 g/ha): 9
Plant response rating (0 to 10 scale), Wild buckwheat ([21]; PREEMERGENCE, Rate 200 g/ha): 10
Plant response rating, Wild buckwheat ([21]; Rate 200 g/ha, POSTEMERGENCE): 10
Plant response rating, Wild oat ([22]; POSTEMERGENCE, Rate 50 g/ha): 3
Plant response rating, Wild oat ([22]; PREEMERGENCE, Rate 50 g/ha): 3
Plant response rating (0 to 10 scale), Wild oat ([22]; PREEMERGENCE, Rate 200 g/ha): 6
Plant response rating, Wild oat ([22]; Rate 200 g/ha, POSTEMERGENCE): 5
Plant response rating, Nutsedge ([23]; POSTEMERGENCE, Rate 50 g/ha): 1
Plant response rating, Nutsedge ([23]; PREEMERGENCE, Rate 50 g/ha): 0
Plant response rating (0 to 10 scale), Nutsedge ([23]; PREEMERGENCE, Rate 200 g/ha): 0
Plant response rating, Nutsedge ([23]; Rate 200 g/ha, POSTEMERGENCE): 2
